Reference: US4101536A, “Muramyldipeptide derivatives and process for the preparation thereof” (Daiichi Seiyaku Co., Ltd., priority 1976, dated 1978)
Where “and” joins values, the source holds several entries; their conditions need not be identical. Equal values may be shown once.

How the values were obtained:
Hartley guinea pigs = test: Adjuvant activity on the induction of delayed-type hypersensitivity to ABA-Tyr (skin test); assay type: in vivo, guinea pig; details: with 50 μg ABA-Tyr in Freund's incomplete adjuvant, four footpads, skin test two weeks later, mm ± SE
Description: Adjuvant activity of the object compound on the induction of delayed-type hypersensitivity to ABA-Tyr.
Hartley guinea pigs were immunized into four footpads with 50 μg of N-acetyl-L-tyrosine-3-azobenzene-4'-arsonic acid (ABA-Tyr) in Freund's incomplete adjuvant with a test material dissolved or suspended in phosphate buffered saline. Control groups were immunized with ABA-Tyr alone in Freund's incomplete adjuvant.
Two weeks later, skin test with 100 μg of ABA-bacterial α-amylose (ABA-BαA) dissolved in saline was made and skin reaction was measured 24 hours after intradermal injection of test antigen.

[1] = system: mastocytoma P815-X2 cells; test: Adjuvant activity on the induction of cell-mediated cytotoxic cells in the spleen of allogenic mice (Brunner's method); assay type: in vivo, C57BL/6J mice; details: phosphate buffered saline suspension, eleven days after
Description: Adjuvant activity on the induction of cell-mediated cytotoxic cells in the spleen of allogenic mice (C57BL/6J).
Three or four mice of C57BL/6J in each group were immunized intraperitoneally with a mixture of mastocytoma P815-X2 cells (1 × 10^4) and a test material dissolved or suspended in phosphate buffered saline. Control group was immunized with mastocytoma P815-X2 cells alone.
Eleven days after, cell-mediated cytotoxicity was determined by Brunner's method (Immunology 18, 501-515 1970).

MH134 hepatoma [2] = test: Antitumor activity on the suppression of MH-134 hepatoma; assay type: in vivo, C3H/He mice; details: intradermal, A = mice with tumor growth completely suppressed, B = tested mice
Description: Antitumor activity on the suppression of MH-134 hepatoma in C3H/He mice
The antitumor activity of the compounds of this invention was examined by using MH134 hepatoma in syngeneic C3H/He mice. A mixture of tumor cells of MH134 (1 × 10^5) and materials (100 or 20 μg) dissolved or suspended in phosphate buffered saline and transplanted intradermally into C3H/He mice and the tumor growth was measured in inoculated sites.

[3] = system: mastocytoma P815-X2 cells; details: immunization with allogeneic antigen, mastocytoma P815-X2 cell in vivo; prior-art statement; cited from earlier work
MH134 hepatoma [4] = details: MH134 hepatoma in C3H/He; prior-art statement; cited from earlier work
melanoma B16 = melanoma B16 in C57BL/6J; prior-art statement; cited from earlier work
ovalmin protein antigen = details: increased serum antibody levels and induction of delayed-type hypersensitivity; prior-art statement; cited from earlier work
[5] = dose 10 μg/mice i.p. with P815-X2 cells (1 × 10^4)
[6] = dose 100 μg/mice i.p. with P815-X2 cells (1 × 10^4)
[7] = dose 20 μg mixed with MH134 cells (1 × 10^5)
[8] = dose 100 μg mixed with MH134 cells (1 × 10^5)

6-O-corynomycoloyl-N-acetylmuramyl-L-alanyl-D-isoglutamine [Coryno-L-Ala-D-isoGln]
Skin reaction with 100μg of ABA-BαA at 24 hrs. (Hartley guinea pigs; dose 30 μg): 21.2 ± 1.9 mm
Skin reaction with 100μg of ABA-BαA at 24 hrs. (Hartley guinea pigs; dose 300 μg): 22.0 ± 0.6 mm
Specific Target Cell Lysis [1, 5]: 16.1 ± 5.0%
Specific Target Cell Lysis [1, 6]: 28.8 ± 14.4%
Antitumor Activity A/B Tumor Growth (MH134 hepatoma [2]; [7]): 6/10

6-O-mycomycoloyl-N-acetylmuramyl-L-alanyl-D-isoglutamine [Myco-L-Ala-D-isoGln]
Skin reaction with 100μg of ABA-BαA at 24 hrs. (Hartley guinea pigs; dose 50 μg): 22.8 ± 0.6 mm and 12.8 ± 1.6 mm
Skin reaction with 100μg of ABA-BαA at 24 hrs. (Hartley guinea pigs; dose 500 μg): 20.9 ± 0.8 mm and 17.1 ± 0.5 mm
Specific Target Cell Lysis [1, 5]: 3.9%
Specific Target Cell Lysis [1, 6]: 69.7%
Antitumor Activity A/B Tumor Growth (MH134 hepatoma [2]; [8]): 10/10

6-O-mycomycoloyl-N-acetylmuramyl-L-ser-D-isoglutamine [Myco-L-Ser-D-isoGln]
Skin reaction with 100μg of ABA-BαA at 24 hrs. (Hartley guinea pigs; dose 50 μg): 18.0 ± 0.6 mm
Skin reaction with 100μg of ABA-BαA at 24 hrs. (Hartley guinea pigs; dose 500 μg): 15.0 ± 0.5 mm
Specific Target Cell Lysis [1, 5]: 21.8 ± 15.2%
Specific Target Cell Lysis [1, 6]: 30.4 ± 14.0%
Antitumor Activity A/B Tumor Growth (MH134 hepatoma [2]; [8]): 10/10

6-O-mycomycoloyl-N-acetylmuramyl-glycyl-D-isoglutamine [Myco-Gly-D-isoGln]
Skin reaction with 100μg of ABA-BαA at 24 hrs. (Hartley guinea pigs; dose 50 μg): 2.7 ± 0.7 mm
Skin reaction with 100μg of ABA-BαA at 24 hrs. (Hartley guinea pigs; dose 500 μg): 15.3 ± 0.6 mm
Specific Target Cell Lysis [1, 5]: 39.3 ± 3.2%
Specific Target Cell Lysis [1, 6]: 77.0 ± 4.0%
Antitumor Activity A/B Tumor Growth (MH134 hepatoma [2]; [8]): 7/10

6-O-nocardomycoloyl-N-acetylmuramyl-L-alanyl-D-isoglutamine [Nocardo-L-Ala-D-isoGln]
Skin reaction with 100μg of ABA-BαA at 24 hrs. (Hartley guinea pigs; dose 40 μg): 24.5 ± 0.7 mm
Skin reaction with 100μg of ABA-BαA at 24 hrs. (Hartley guinea pigs; dose 400 μg): 23.0 ± 1.5 mm
Specific Target Cell Lysis [1, 5]: 21.0 ± 7.6%
Specific Target Cell Lysis [1, 6]: 76.9 ± 3.2%
Antitumor Activity A/B Tumor Growth (MH134 hepatoma [2]; [7]): 5/10

CCCCCCCCCCCCCCCCCC(=O)OCC1OC(O)C(NC(C)=O)C(OC(C)C(=O)NC(C)C(=O)NC(CCC(=O)O)C(N)=O)C1O (stereo not drawn) [Stearoyl-muramyldipeptide, 6-O-stearoyl-muramyldipeptide, reference compound]
Skin reaction with 100μg of ABA-BαA at 24 hrs. (Hartley guinea pigs; dose 100 μg): 17.2 ± 1.2 mm
Specific Target Cell Lysis [1, 6]: 4.2%
Antitumor Activity A/B Tumor Growth (MH134 hepatoma [2]; [7]): 0/10
Antitumor Activity A/B Tumor Growth (MH134 hepatoma [2]; [8]): 0/10
adjuvant activity in the generation of cell-mediated cytotoxic effector cells on the spleen [3]: no adjuvant activity
antitumor activity on syngeneic mouse tumor system (MH134 hepatoma [4]): no antitumor activity
antitumor activity on syngeneic mouse tumor system (melanoma B16): no antitumor activity
immunoadjuvant activity (ovalmin protein antigen): immunological properties almost similar to those of muramyldipeptide
